Laboratory results reported in patent publication US20240352046A1, “ECTONUCLEOTIDE PYROPHOSPHATASE-PHOSPHODIESTERASE-1 (ENPP1) INHIBITORS AND USES THEREOF” (1cBio, Inc., priority 2020, published 2024).
Like-named read-outs stand apart in the source and are kept apart here.

Key:
[1] = system: IP-10 release in differentiated THP-1 cells; assay: IP-10 cytokine release assay in THP-1 cell lines; format: cell-based, Human; settings: for EC50: Homo sapiens, IP-10 release over cGAMP induced release; for Percent release IP-10 (Absolute): differentiated THP-1
Description: Percent release of Interferon gamma-induced protein 10 (IP-10) was determined in acute monocytic leukemia (THP-1; ATCC® TIB-202™) cell line. THP-1 cells (0.2×10^6 cells/well) were differentiated using phorbol 12-myristate 13-acetate (PMA, 10 nM (final concentration); Cat #P8139, Sigma) and incubated for 24 h at 37° C., 5% CO2 in an incubator (cell culture conditions) prior to treating with serial dilutions of compounds (3 fold, 6 point dose response starting at 10 μM). After treatment with the compounds cells were further incubated for 2 h under cell culture conditions and then exposed to 2′,3′-cGAMP (c-GAMP, 1 μM (final concentration); Cat #SML 1229, Sigma). Differentiated THP-1 cells were further cultured for 24 h after which the supernatant was harvested, and ELISA was performed as per the manufacturer's protocol (BD optEIA Human IP-10 ELISA Set; Cat #550926 & 550534, BD Biosciences). Plates were read in Biotek plate reader by measuring absorbance at 450 nm.
The release of absolute IP-10 in differentiated THP-1 by compounds in the presence of cGAMP was quantified with reference to standard after subtracting blank (negative) reading from the test readings. The absolute release of IP-10 in the presence of cGAMP (1 μM) is given in the bar-graph (FIG.-1) and in the table-B2a.
The release of IP-10 in differentiated THP-1 by compounds over cGAMP induced release at four different concentrations of cGAMP (1, 5, 10 & 30 μM) was quantified with reference to standard by normalizing the blank (negative) subtracted test readings from average of cGAMP activated cells at that particular concentration. The EC50's was calculated by fitting the curve to the “four-parameter variable slope logistic model” using Prism Graph Pad.

[2] = system: IFN-β release in mouse splenocytes; assay: IFN-β in mouse splenocyte assay; format: cell-based, Balb/c mice; settings: activated Balb/c splenocytes, cGAMP 1 μM, 24 hr
Description: Percent release of Interferon Beta (IFN-03) is determined in mouse splenocytes isolated from Balb/c mice. Mouse splenocytes ([…] cells/well) were activated with Anti-mouse CD3e (3 μg/mil, coated overnight at 4° C.; Cat #14-0032-82, eBioscience) and then incubated with Anti-mouse CD28 (3 μg/ml soluble; Cat #16-0289-81, eBiosciences) for 24 h at 37° C., 5% CO2 in an incubator (cell culture conditions) prior to treating them with serial dilutions of compounds (3 fold, 6 point dose response starting at 30 μM). After treatment with the compounds cells are further incubated for 2 h under cell culture conditions and then treated with 2′,3′-cGAMP (c-GAMP, 1 μM; Cat #SML 1229, Sigma). Splenocytes were further incubated under cell culture conditions for 24 hr after which the supernatant was harvested, and ELISA was performed as per the manufacturer's protocol (mIFN-β kit; Cat #MIFNB0 & DY008, R&D Systems). Plates were read in Biotek plate reader by measuring absorbance at 450 nm.

[3] = system: IP-10 release in mouse splenocytes; assay: IP-10 in mouse splenocyte assay; format: cell-based, Balb/c mice; settings: activated Balb/c splenocytes, cGAMP 1 μM, 48 hr
Description: Percent release of Interferon gamma-induced protein 10 (IP-10) was determined in mouse splenocytes isolated from Balb/c mice. Mouse splenocytes (2.5*10^5 cells/well) were activated with Anti-mouse CD3e (3 μg/ml, coated overnight at 4° C.; Cat #14-0032-82, eBioscience) and then incubated with Anti-mouse CD28 (3 μg/ml soluble; Cat #16-0289-81, eBiosciences) for 24 h at 37° C., 5% CO2 in an incubator (cell culture conditions) prior to treating them with serial dilutions of compounds (3 fold, 6 point dose response starting at 30 μM). After treatment with the compounds cells were further incubated for 2 h under cell culture conditions and then treated with 2′,3′-cGAMP (c-GAMP, 1 μM; Cat #SML 1229, Sigma). Splenocytes were further incubated under cell culture conditions for 48 hr after which the supernatant was harvested, and ELISA was performed as per the manufacturer's protocol (mIP-10 kit; Cat #DY466-05 & DY008, R&D Systems). Plates were read in Biotek plate reader by measuring absorbance at 450 nm.

[4] = system: IFN-β release in differentiated THP-1 cells; assay: IFN-β cytokine release assay in THP-1; format: cell-based; settings: Homo sapiens, read-out: EC50 (μM) @ 1 μM of cGAMP; IFN-β release over cGAMP induced release, THP-1, 1 μM cGAMP
Description: Percent release of Interferon Beta (IFN-03) was determined in acute monocytic leukemia (THP-1; ATCC® TIB-202™) cell line. THP-1 cells (0.3×10^6 cells/well) were differentiated using phorbol 12-myristate 13-acetate (PMA, 50 ng/mL; Cat #P8139, Sigma) and incubated for 24 h at 37° C., 5% CO2 in an incubator (cell culture conditions) prior to treating with serial dilutions of compounds (3 fold, 5 point dose response starting at […]). After treatment with the compounds cells were further incubated for 2 h under cell culture conditions and then exposed to 2′,3′-cGAMP (c-GAMP, 1 μM; Cat #SML 1229, Sigma). Differentiated THP-1 cells were further cultured for 6 h after which the supernatant was harvested, and ELISA was performed as per the manufacturer's protocol (Human IFN-beta Quantikine ELISA Kit; Cat #DIFNB0, R&D systems). Plates were read in Biotek plate reader by measuring absorbance at 450 nm.

[5] = target: ENPP-1 (Ectonucleotide Pyrophosphatase/Phosphodiesterase 1) (Homo sapiens (Human), UniProt P22413); assay: ENPP1 inhibition assay (AMP Glo, cGAMP substrate); format: biochemical; settings: cGAMP 20 μM substrate, ENPP1 1 nM
ENPP-1 (Ectonucleotide Pyrophosphatase/Phosphodiesterase 1), sequence (P22413 whole entry): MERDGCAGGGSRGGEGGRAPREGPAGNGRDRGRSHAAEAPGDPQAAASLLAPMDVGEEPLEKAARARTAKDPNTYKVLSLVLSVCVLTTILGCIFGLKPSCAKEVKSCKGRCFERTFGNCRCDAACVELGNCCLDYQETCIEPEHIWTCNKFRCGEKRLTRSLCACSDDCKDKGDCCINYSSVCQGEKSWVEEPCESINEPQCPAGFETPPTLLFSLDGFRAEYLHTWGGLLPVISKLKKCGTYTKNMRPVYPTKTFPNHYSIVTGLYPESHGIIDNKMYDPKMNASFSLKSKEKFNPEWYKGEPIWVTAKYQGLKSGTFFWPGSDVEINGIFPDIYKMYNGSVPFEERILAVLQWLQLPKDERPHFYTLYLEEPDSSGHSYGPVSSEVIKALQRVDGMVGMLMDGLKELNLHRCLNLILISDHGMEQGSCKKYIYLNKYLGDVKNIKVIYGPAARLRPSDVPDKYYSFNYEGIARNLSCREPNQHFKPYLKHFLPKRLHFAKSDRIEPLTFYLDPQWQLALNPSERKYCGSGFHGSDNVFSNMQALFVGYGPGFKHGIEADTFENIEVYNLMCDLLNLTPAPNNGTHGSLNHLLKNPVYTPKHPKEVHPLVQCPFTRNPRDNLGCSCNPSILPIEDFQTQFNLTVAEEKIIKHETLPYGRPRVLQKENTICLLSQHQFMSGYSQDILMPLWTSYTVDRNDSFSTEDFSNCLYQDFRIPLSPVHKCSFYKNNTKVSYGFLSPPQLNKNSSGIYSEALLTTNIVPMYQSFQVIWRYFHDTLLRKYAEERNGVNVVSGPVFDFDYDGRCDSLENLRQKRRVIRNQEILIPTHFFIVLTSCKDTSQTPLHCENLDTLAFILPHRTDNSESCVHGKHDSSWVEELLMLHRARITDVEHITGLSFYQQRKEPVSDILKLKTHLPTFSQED

[6] = read-out: EC50 (μM)@ 1 μM of cGAMP, THP-1, 1 μM cGAMP

Row | EC50 [1, 6] [µM] | EC50 [4] [µM] | IC50 [5] [µM] | Structure (SMILES) | other results
1 | 7.78 | > 30 | 0.09 | COc1cc2ncnc(N3CC(CCNS(C)(=O)=O)C3)c2cc1OC [Compound 1.6, N-(2-[1-(6,7-dimethoxyquinazolin-4-yl)azetidin-3-yl]ethyl)methanesulfonamide] | –
2 | 5.73 | > 30 | 0.07 | Cc1ccn2ncnc(N3CC(CCNS(N)(=O)=O)C3)c12 [Compound 1.20, 4-(3-(2-sulfamoylaminoethyl)azetidine-1-yl)-5-methylpyrrolo[1,2-f][1,2,4]triazine] | –
3 | < 0.12 | > 30 | 0.019 | COc1cc2ncnc(N3CC(CCB(O)O)C3)c2cc1OC [Compound 1.30, 2-(1-(6,7-dimethoxyquinazolin-4-yl)azetidin-3-yl)ethylboronic acid] | –
4 | 3.26 | > 30 | – | COc1cc2ncnc(N3CC(CCCS(N)(=O)=O)C3)c2cc1OC [Compound 1.39, 3-(1-(6,7-dimethoxyquinazolin-4-yl)azetidin-3-yl)propane-1-sulfonamide] | –
5 | – | > 30 | > 3 | Cc1nc(N2CC(CCNS(N)(=O)=O)C2)c2c(C)ccn2n1 [Compound 1.71, 4-(3-(2-sulfamoylaminoethyl)azetidine-1-yl)-2,5-di-methylpyrrolo[1,2-f][1,2,4]triazine] | –
6 | 0.071 | < 0.12 | 0.084 | Cc1cc(Cl)n2ncnc(N3CC4(CC(N(C)S(N)(=O)=O)C4)C3)c12 [Compound 1.76, N-[2-(7-chloro-5-methylpyrrolo[2,1-f][1,2,4]triazin-4-yl)-2-azaspiro[3.3]hept-6-yl]-N-methylsulfuric diamide] | IC50 [2]: 3.26 µM; IC50 [3]: 1780 nM

Continued, molecule first:

Row | Structure (SMILES) | EC50 [1, 6] [µM] | EC50 [4] [µM] | IC50 [5] [µM] | other results
7 | COc1cc2ncnc(N3CC(CCNS(N)(=O)=O)C3)c2cc1OC [Compound 1.1, (2-(1-(6,7-dimethoxyquinazolin-4-yl)azetidin-3-yl)ethyl)aminisulfonamide] | 0.308 | < 3.35 | 0.008 | EC50 ([1]; read-out: EC50 (μM)@ 10 μM of cGAMP, THP-1, 10 μM cGAMP): 0.471 µM; EC50 ([1]; read-out: EC50 (μM)@ 30 μM of cGAMP, THP-1, 30 μM cGAMP): 0.624 µM; EC50 ([1]; THP-1, 5 μM cGAMP, read-out: EC50 (μM)@ 5 μM of cGAMP): < 0.12 µM; Percent release IP-10 (Absolute) ([1]; cGAMP (1 μM) + compound 0.37 μM): 8.9%; Percent release IP-10 (Absolute) ([1]; cGAMP (1 μM) + compound 1.11 μM): 11.4%; Percent release IP-10 (Absolute) ([1]; cGAMP (1 μM) + compound 3.33 μM): 13.1%; Percent release IP-10 (Absolute) ([1]; cGAMP (1 μM) + compound 10 μM): 18.3%; Percent release IP-10 (Absolute) ([1]; cGAMP (1 μM) + compound […]): 7.0%; IC50 [2]: 3.09 µM; IC50 [3]: 1720 nM
8 | COc1cc2nc(-c3ccccc3)nc(N3CC(CCNS(N)(=O)=O)C3)c2cc1OC [Compound 1.21, 4-(3-(2-sulfamoylaminoethyl)azetidine-1-yl)-6,7-dimethoxy-2-phenylquinazoline] | 1.88 | > 30 | 0.092 | –
9 | COc1cc2ncnc(N3CC(CCN(C4CC4)S(N)(=O)=O)C3)c2cc1OC [Compound 1.23, 4-(3-(2-((sulfamoyl)(cyclopropyl)amino)ethyl)azetidine-1-yl)-6,7-dimethoxyquinazoline] | 7.87 | > 30 | 0.029 | –
10 | COc1cc2ncnc(N3CC(CC(=O)NO)C3)c2cc1OC [Compound 1.28, 2-(1-(6,7-dimethoxyquinazolin-4-yl)azetidin-3-yl)-N-hydroxyacetamide] | 9.56 | > 30 | 0.026 | –
11 | COc1cc2ncnc(N3CC(C(C)CNS(N)(=O)=O)C3)c2cc1OC (stereo not shown) [Compound 1.70, 4-3-(3-sulfamoylaminopropan-2-yl)azetidin-1-yl-6,7-dimethoxyquinazoline] | 0.304 | 2.82 | 0.024 | –
